# Data published in US9440982B2 (Eolas Therapeutics, Inc., priority 2012, dated 2016).
# Molecular target: T1, OX1 (Homo sapiens, UniProt O43613)
# T1 construct: expressed in transfected cells; host or cells: CHO (CHO-OX1, kept under selection antibiotic)
# T1 sequence (O43613 1-425): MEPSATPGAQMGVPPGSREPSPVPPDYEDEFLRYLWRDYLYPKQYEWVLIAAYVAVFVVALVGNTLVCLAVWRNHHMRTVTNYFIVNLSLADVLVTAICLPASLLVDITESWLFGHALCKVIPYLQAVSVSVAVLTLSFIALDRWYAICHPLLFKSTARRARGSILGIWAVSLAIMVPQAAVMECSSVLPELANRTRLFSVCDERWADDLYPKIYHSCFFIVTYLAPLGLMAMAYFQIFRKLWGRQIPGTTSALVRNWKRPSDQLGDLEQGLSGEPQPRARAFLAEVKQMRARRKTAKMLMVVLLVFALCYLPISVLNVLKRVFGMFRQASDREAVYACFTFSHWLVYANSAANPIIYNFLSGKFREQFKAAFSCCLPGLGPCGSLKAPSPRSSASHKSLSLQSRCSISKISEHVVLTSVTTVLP
# Test: Orexin receptor cell-based functional assay, [Ca2+]i by FLIPR, CHO-OX1 cells
# Conditions: CHO-OX1 cells, [Ca2+]i by FLIPR, antagonist dose-range 0.1 nM-10 μM, EC90 of OXA; read-out: OX1
# In short: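 Antagonist mode FLIPR calcium read in CHO-OX1 and CHO-OX2 lines. Test compounds, dosed 0.1 nM-10 μM, preincubated 30 min after 37° C dye loading with 2.5 mM probenecid (calcium4 for 30 min or calcium6 for 2 h).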
row,IC50 [nM],SMILES
1,7,"Cc1nc(C(=O)N2CCC[C@H](C)[C@H]2CNc2ccc(C(F)(F)F)cn2)c(-c2ccc(F)cc2)s1 (racemic) [Example A65, rac-trans-(5-(4-Fluorophenyl)-2-methylthiazol-4-yl)(3-methyl-2-(((5-(trifluoromethyl)pyridin-2-yl)amino)methyl)piperidin-1-yl)methanone]"
2,11,"Cc1ccc(-c2cnn(C)c2)c(C(=O)N2CCC[C@@H](C)[C@H]2CNc2ccc(F)cn2)c1 [Example A44, ((2S,3R)-2-(((5-Fluoropyridin-2-yl)-amino)methyl)-3-methylpiperidin-1-yl)(5-methyl-2-(1-methyl-1H-pyrazol-4-yl)phenyl)methanone]"
3,500,"Cc1ccc(NC[C@@H]2[C@H](C)CCCN2C(=O)c2cc(C)ccc2-c2cnn(C)c2)nc1 [Example A49, ((2S,3R)-3-Methyl-2-(((5-methylpyridin-2-yl)amino)methyl)piperidin-1-yl)(5-methyl-2-(1-methyl-1H-pyrazol-4-yl)phenyl)methanone]"
4,230,"Cc1ccc(-c2ccnn2C)c(C(=O)N2CCC[C@@H](C)[C@H]2CNc2nc3cc(Cl)ccc3o2)c1 [Example A50, ((2S,3R)-2-(((5-Chlorobenzo[d]oxazol-2-yl)amino)methyl)-3-methylpiperidin-1-yl)(5-methyl-2-(1-methyl-1H-pyrazol-5-yl)phenyl)methanone]"
5,> 1000,"Cc1ccc(-n2cnc(C(F)(F)F)n2)c(C(=O)N2CCC[C@@H](C)[C@H]2CNc2ccc(C#N)cn2)c1 [Example A51, 6-((((2S,3R)-3-Methyl-1-(5-methyl-2-(3-(trifluoromethyl)-1H-1,2,4-triazol-1-yl)benzoyl)piperidin-2-yl)methyl)amino)nicotinonitrile]"
6,670,"Cc1ccc(-c2ccnc(C)c2)c(C(=O)N2CCC[C@@H](C)[C@H]2CNc2ccc(F)cn2)c1 [Example A53, ((2S,3R)-2-(((5-Fluoropyridin-2-yl)amino)methyl)-3-methylpiperidin-1-yl)(5-methyl-2-(2-methylpyridin-4-yl)phenyl)methanone]"
7,230,"Cc1ccc(-c2ccccn2)c(C(=O)N2CCC[C@@H](C)[C@H]2CNc2ccc(F)cn2)c1 [Example A58, ((2S,3R)-2-(((5-Fluoropyridin-2-yl)amino)methyl)-3-methylpiperidin-1-yl)(5-methyl-2-(pyridin-2-yl)phenyl)methanone]"
8,1100,"Cc1ccc(-c2ccnn2C)c(C(=O)N2CCC[C@@H](C)[C@H]2CNc2ccc(F)cn2)c1 [Example A61, ((2S,3R)-2-(((5-Fluoropyridin-2-yl)amino)methyl)-3-methylpiperidin-1-yl)(5-methyl-2-(1-methyl-1H-pyrazol-5-yl)phenyl)methanone]"
9,> 1000,"Cc1ccc(-n2cnc(C(F)(F)F)n2)c(C(=O)N2CCC[C@@H](C)[C@H]2CNc2nc3cc(Cl)ccc3o2)c1 [Example A64, ((2S,3R)-2-(((5-Chlorobenzo[d]oxazol-2-yl)amino)methyl)-3-methylpiperidin-1-yl)(5-methyl-2-(3-(trifluoromethyl)-1H-1,2,4-triazol-1-yl)phenyl)methanone]"
10,21,"Cc1ccc(-n2nccn2)c(C(=O)N2CC3CCCC3C2CNc2ccc(C(F)(F)F)cn2)c1 (stereo not drawn) [Example A69, (5-Methyl-2-(2H-1,2,3-triazol-2-yl)phenyl)(1-(((5-(trifluoromethyl)pyridin-2-yl)amino)methyl)hexahydrocyclopenta[c]pyrrol-2(1H)-yl)methanone]"
11,70,"Cc1ccc(-c2cnn(C)c2)c(C(=O)N2CC3CCCC3C2CNc2ccc(C(F)(F)F)cn2)c1 (stereo not drawn) [Example A71, (5-Methyl-2-(1-methyl-1H-pyrazol-4-yl)phenyl)(1-(((5-(trifluoromethyl)pyridin-2-yl)amino)methyl)hexahydrocyclopenta[c]pyrrol-2(1H)-yl)methanone]"
12,1300,"COc1c(F)cccc1C(=O)N1CCC[C@@H](C)[C@H]1CNc1ccc(C(F)(F)F)cn1 [Example A75, (3-Fluoro-2-methoxyphenyl)((2S,3R)-3-methyl-2-(((5-(trifluoromethyl)pyridin-2-yl)amino)methyl)piperidin-1-yl)methanone]"
13,> 1000,"Cc1nc(C(=O)N2CCCC3CN(c4nc5ccc(Cl)cc5o4)CC32)c(-c2ccc(F)cc2)s1 (stereo not drawn) [Example A76, (6-(6-Chlorobenzo[d]oxazol-2-yl)octahydro-1H-pyrrolo[3,4-b]pyridin-1-yl)(5-(4-fluorophenyl)-2-methylthiazol-4-yl)methanone]"
14,> 1000,"Cc1nc(C(=O)N2CCCC3CN(c4ccc(C(F)(F)F)cn4)CC32)c(-c2ccc(F)cc2)s1 (stereo not drawn) [Example A77, (5-(4-Fluorophenyl)-2-methylthiazol-4-yl)(6-(5-(trifluoromethyl)pyridin-2-yl)octahydro-1H-pyrrolo[3,4-b]pyridin-1-yl)methanone]"
15,< 10,"Cc1nc(C(=O)N2CCC[C@@H](C)[C@H]2CNc2ccc(C(F)(F)F)cn2)c(-c2cccc(F)c2)s1 [Example A109, (5-(3-Fluorophenyl)-2-methylthiazol-4-yl)((2S,3R)-3-methyl-2-(((5-(trifluoromethyl)pyridin-2-yl)amino)methyl)piperidin-1-yl)methanone]"
16,> 1000,"Cc1ccc(-c2cnn(C)c2)c(C(=O)N2CCC[C@@H](C)[C@H]2COc2ccc(C(F)(F)F)cn2)c1 [Example A114, ((2S,3R)-3-Methyl-2-(((5-(trifluoromethyl)pyridin-2-yl)oxy)methyl)piperidin-1-yl)(5-methyl-2-(1-methyl-1H-pyrazol-4-yl)phenyl)methanone]"
17,4,"Cc1ccc(-n2nccn2)c(C(=O)N2CCC[C@@H](C)[C@H]2CNc2nc3ccccc3o2)c1 [Example A180, ((2S,3R)-2-((Benzo[d]oxazol-2-ylamino)methyl)-3-methylpiperidin-1-yl)(5-methyl-2-(2H-1,2,3-triazol-2-yl)phenyl)methanone]"

# Same assay, conditions: Table 2; CHO-OX1 cells, EC90 of OXA; read-out: IC50 Bioactivity OX1
row,IC50 [nM],SMILES
1,6,"O=C(NC[C@@H]1C[C@H](F)CN1C(=O)c1ccccc1-c1ccccc1)c1cccc2cccnc12 [Example 5, N-(((2S,4S)-1-(Biphenylcarbonyl)-4-fluoropyrrolidin-2-yl)methyl)quinoline-8-carboxamide]"
2,30,"O=C1C[C@@H](CNC(=O)c2cccc3cccnc23)N(C(=O)c2ccccc2-c2ccccc2)C1 [Example 6, (S)—N-((1-(Biphenylcarbonyl)-4-oxopyrrolidin-2-yl)methyl)quinoline-8-carboxamide]"
3,35,"O=C(NC[C@@H]1C[C@@H](F)CN1C(=O)c1ccccc1-c1ccccc1)c1cccc2cccnc12 [Example 128, N-(((2S,4R)-1-(Biphenylcarbonyl)-4-fluoropyrrolidin-2-yl)methyl)quinoline-8-carboxamide]"
4,6,"Cc1nc(-c2ccccc2)c(C(=O)N2CC[C@H](O)[C@H]2CNC(=O)c2cccc3cccnc23)s1 [Example 130, N-(((2R,3S)-3-Hydroxy-1-(2-methyl-4-phenylthiazole-5-carbonyl)pyrrolidin-2-yl)methyl)quinoline-8-carboxamide]"
5,53,"CC(=O)O[C@H]1C[C@@H](CNC(=O)c2cccc3cccnc23)N(C(=O)c2ccccc2-c2ccccc2)C1 [Example 131, (3S,5S)-1-([1,1′-Biphenyl]-2-carbonyl)-5-((quinoline-8-carboxamido)methyl)pyrrolidin-3-yl acetate]"
6,230,"Cc1nc(-c2ccccc2)c(C(=O)N2CCC(=O)[C@H]2CNC(=O)c2cccc3cccnc23)s1 [Example 132, (R)—N-((1-(2-Methyl-4-phenylthiazole-5-carbonyl)-3-oxopyrrolidin-2-yl)methyl)quinoline-8-carboxamide]"
7,12,"Cc1nc(-c2ccccc2)c(C(=O)N2CCC(F)(F)[C@H]2CNC(=O)c2cccc3cccnc23)s1 [Example 133, (R)—N-((3,3-Difluoro-1-(2-methyl-4-phenylthiazole-5-carbonyl)pyrrolidin-2-yl)methyl)quinoline-8-carboxamide]"
8,5,"Cc1nc(-c2ccccc2)c(C(=O)N2CC[C@@H](O)C[C@H]2CNC(=O)c2cccc3cccnc23)s1 [Example 134, N-(((2S,4R)-4-Hydroxy-1-(2-methyl-4-phenylthiazole-5-carbonyl)piperidin-2-yl)methyl)quinoline-8-carboxamide]"

row,SMILES,IC50 [nM]
1,"O=C(NCC1CCC(F)CN1C(=O)c1ccccc1-c1ccccc1)c1cccc2cccnc12 (single isomer, unassigned) [Example 37, N-((1-(Biphenylcarbonyl)-5-fluoropiperidin-2-yl)methyl)quinoline-8-carboxamide]",1
2,"O=C(NCC1CCC(F)CN1C(=O)c1ccccc1-c1ccccc1)c1cccc2cccnc12 (single isomer, unassigned) [Example 38, N-((1-(Biphenylcarbonyl)-5-fluoropiperidin-2-yl)methyl)quinoline-8-carboxamide]",4
3,"Cc1nc(-c2ccccc2)c(C(=O)N2CC3CCCCC3C2CNC(=O)c2cccc3cccnc23)s1 (single isomer, unassigned) [Example 65]",> 2000
4,"Cc1nc(C(=O)N2CC3CCCCC3C2CNC(=O)c2cccc3occc23)c(-c2ccccc2)s1 (single isomer, unassigned) [Example 70]",170
5,"Cc1nc(C(=O)N2CC3CCCCC3C2CNC(=O)c2cccc3occc23)c(-c2ccccc2)s1 (single isomer, unassigned) [Example 71]",40
